From US10465005B2, “JAML specific binding agents, antibodies, and uses related thereto” (Emory University, priority 2011, dated 2019)
Entries after “also recorded” stand apart in the source; their conditions may differ.

Key:
[1] = system: T84 monolayers; test: Epithelial barrier recovery after calcium switch (TER, dextran flux); type: cell-based, human; conditions: 30 μg/ml, 20 m/ml, up to 24 hours, FIG. 9A
Description: T84 monolayers grown on permeable supports were subjected to transient calcium depletion by preincubation in Ca2+ free buffer (PBS) for 40 min to disassemble tight junctions, followed by switching back to calcium containing medium without (No Tx), or with sJAML or a control recombinant IgSF protein sSIRPa (30 μg/ml). Barrier recovery was measured as transepithelial resistance (TER) at time points as indicated.
FIG. 9B. Flux of fluorescently labeled dextran (3 k) was measured at the 24 h time point for conditions as described in panel A. N=4.
Since CAR plays a role in epithelial barrier, the effect of soluble JAML on epithelial barrier recovery was tested. Transepithelial resistance (TER) recovery experiments and dextran flux assay were performed with T84 cells grown in transwells (FIG. 9) as well as with Caco2 cells. […] As a negative control, a related soluble IgSF molecule SIRPalpha had no effect.

[2] = system: PMN; test: Surface JAML on PMN after activation (flow cytometry); type: cell-based, human
Description: Freshly isolated PMN, not treated (No Tx), or treated with either fMLF (100 nM) or PMA (200 nM) in suspension for 15 minutes at 37° c. were fixed with 1% paraformaldehyde, stained for JAML (DW100) and CD11b/CD18 (CBRM 1/29) and analyzed for surface expression by flow cytometry.
Since prior to transepithelial migration PMNs exit the blood vessels, whether JAML expression on PMNs would be preserved during migration across endothelial cells (HDMECs) towards a 10 μM fMLF, as described previously was evaluated. Indeed under similar conditions only a small portion of surface JAML was lost, but most of it was still detectable on PMN surface (FIG. 3B).
Thus whether PMN activation alone is sufficient to induce the loss of surface JAML or whether direct contact with the epithelium is required was examined. To test this, the expression of JAML was analyzed on PMNs that were stimulated in suspension with fMLF (100 μM) and PMA (200 nM). PMNs were allowed to adhere to epithelial cells for 1 hour. The loss of JAML could be correlated to the degree of PMN activation. […] This was again confirmed by immunofluorescence (FIG. 4B). PMN adhesion to epithelium in the absence of proinflamatory stimulus (as measured by flow cytometry, gating on Mac-1 positive PMNs) was also sufficient to induce a partial loss of surface JAML (FIG. 4C), in agreement with the small loss of surface JAML observed after migration through endothelial cells (FIG. 3B). […] Next, the observed loss of JAML during PMN activation may be due to its shedding from PMN surface and thus would be detectable in the supernatant of activated cells. To test this hypothesis, two antibodies, DW100 and DW216 that recognize two different epitopes of JAML were used in a sandwich ELISA assay to capture solubilized molecules in the supernatant of activated PMN.

[3] = target: T1, CHO-JAML-His and CHO JAML-6xMyc (Homo sapiens, UniProt Q86YT9); test: FACS staining of stably transfected CHO-JAML cell lines; type: binding; conditions: FIG. 1A
T1 construct: 6xMyc (cell line CHO JAML-6xMyc); expressed in transfected cells
T1 sequence (Q86YT9 20-394): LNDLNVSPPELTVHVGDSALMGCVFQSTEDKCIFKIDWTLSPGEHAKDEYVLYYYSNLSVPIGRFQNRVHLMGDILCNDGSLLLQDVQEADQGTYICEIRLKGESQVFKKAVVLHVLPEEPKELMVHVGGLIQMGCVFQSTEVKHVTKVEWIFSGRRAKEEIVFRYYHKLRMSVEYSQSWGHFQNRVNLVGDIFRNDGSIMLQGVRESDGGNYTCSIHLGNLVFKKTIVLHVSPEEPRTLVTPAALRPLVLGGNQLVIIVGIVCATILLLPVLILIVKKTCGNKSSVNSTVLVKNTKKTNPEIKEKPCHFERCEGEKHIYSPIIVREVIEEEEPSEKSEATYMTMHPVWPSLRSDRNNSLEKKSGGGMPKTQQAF
Excerpt: BALB/c mice were immunized with recombinant soluble fragment of JAML.D1D2 tagged with 10 His residues at the C-terminus (sJAML-His), generated in H293T cells and purified by Nickel chromatography. After the 4th boost, mice were given a final immunization and, 3 days later, spleen cells harvested and fused to the myeloma cell line P3U1. Hybridomas were selected in HAT medium and supernatants of clones were subjected to screening first to immobilized, soluble JAML and followed by staining of CHO-JAML stable transfectants. Three hybridomas were selected and antibodies were purified from ascites. FACS staining profiles of mAbs using two different, stably transfected CHO-JAML cell lines, CHO-JAML-His and CHO JAML-6xMyc, both membrane bound and tagged at the C-terminus with either 10-His or 6xMyc. Control antibody is 9E10 anti Myc.
These hybridomas were further tested for reactivity against tagged, full-length JAML expressed on the surface of cultured cells. CHO-JAML-6XMyc transfectants were aliquoted and pelleted into round bottom 96 well plates. 100 μl hybridoma supernatants were added for 1 hr at 4° C. Cells were washed and positive wells were identified by FACS analysis using Goat anti Mouse-AlexaFluor 488. Cells from positive wells were cloned by limiting dilution at one cell per well and expanded first in DMEM-10% FBS containing HAT then in medium containing HT (ATCC) and later DMEM, 10% FBS. The cloned cells of interest were sent to Harlan Laboratories (Indianapolis, Ind.) for production of ascites. Antibodies were purified from ascitic fluid using proteinA-Sepharose (GE Healthcare) followed by dialysis against PBS. Aliquots were frozen at −80° C. Ig subclass of each antibody was determined by using the IsoStrip Mouse Monoclonal Antibody Isotyping Kit (Roche Applied Science). […]
Cells suspensions of adherent cells were prepared by trypsinization with Trypsin-EDTA (Sigma). […] After final washes, cells were analyzed using FACS Calibur. […] All samples were stained for JAML (DW100 mAb) and CD11b/CD18 (CBRM 1/29), and only CD11b/CD18 positive cells (PMNs) were analyzed for JAML expression.

[4] = target: T2, JAML binding with CAR (Homo sapiens, UniProt Q86YT9); test: CAR binding assay (ELISA, CAR-GST on immobilized sJAML-His); conditions: CAR-GST 10 μg/ml on immobilized sJAML-His preincubated with antibody; FIG. 1C
T2 construct: soluble JAMLD1D2 was truncated and tagged after residue Leucine259; made in house; host or cells: HEK293T (sJAML-His)
T2 sequence (Q86YT9 20-259): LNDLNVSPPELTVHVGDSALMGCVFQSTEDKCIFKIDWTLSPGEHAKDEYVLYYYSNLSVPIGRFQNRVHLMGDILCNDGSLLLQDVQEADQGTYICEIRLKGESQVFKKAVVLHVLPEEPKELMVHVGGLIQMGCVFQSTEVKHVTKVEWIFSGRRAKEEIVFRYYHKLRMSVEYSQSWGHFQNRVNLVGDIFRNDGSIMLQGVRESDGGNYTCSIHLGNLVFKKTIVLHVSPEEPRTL
Description: FIG. 1C. CAR binding assay: sJAML-His was coated in Immulon II microtiter microtiter wells overnight, at 4° C. Microtiter wells were washed and blocked and 100 μl antibody solutions were added to wells for 1 hour RT. After washing, CAR-GST was added at 10 μg/ml for 1 hour RT, washed and the assay was developed with HRP conjugated goat anti GST followed by ABTS and OD measurement at 405 nm.
(§1) Because certain antibodies recognize the membrane distal domain of JAML, their ability to inhibit binding to CAR was tested. By ELISA, the levels of soluble CAR-GST bound to immobilized sJAML-His preincubated with anti JAML antibodies was measured. […] Thus, these antibodies recognize three different epitopes on JAML and that both DW100 and DW55 bind epitopes close to the JAML binding site. Using a cell aggregation assay, the possibility that DW100 could inhibit the binding of JAML to CAR expressed on the surface of cells was examined. […] This again confirms previously described JAML binding to CAR, as well as the specificity of DW100 (blocking) and DW216 (non-blocking) Abs to JAML.

[5] = system: CHO-JAML and CHO-CAR cells; test: CHO-JAML / CHO-CAR cell aggregation assay; type: cell-based; conditions: antibodies 30 μg/ml; 1 hour at 37° C.; FIG. 1D
Description: FIG. 1D. CHO-K1 cells stably transfected with either JAML (CHO-JAML) or CAR (CHO-CAR) proteins were allowed to aggregate (1 hour at 37° C. on a shaker at 50 RPM) separately (1×10^6 cells/BSA coated 3 ml Petri dish), or as a mix (5×10^5 each cell type/dish), in the absence or presence of anti-JAML monoclonal antibodies DW100, DW55 and DW216 (30 μg/ml). The number of clusters (left) and the area of the clusters (right) were quantified in 7 randomly chosen fields using light microscopy. The results are representative of four independent experiments. CHO-CAR and CHO-JAML in mixed cultures formed large aggregates.
as §1

In the case of “SIRPalpha: control recombinant IgSF protein, related soluble IgSF molecule [reference compound]”, the “epithelial barrier recovery (TER) after calcium depletion” value [1] is reported as “had no effect”.

In the case of fMLF, the “JAML expression on PMN after fMLF” value ([2]; 10 μM fMLF) is reported as “no significant effect on JAML expression”, the “surface JAML on PMN after fMLF” value ([2]; 100 μM fMLF, FIG. 4A as described in Example 4) is reported as “partial but significant loss of JAML” and the “surface JAML on PMN after fMLF” value ([2]; fMLF 100 nM, suspension, 15 minutes at 37° c., FIG. 4A) is reported as “partial loss of JAML”.

B1: DW55: monoclonal anti-human JAML antibody (IgG2b,κ); VH SEQ ID NO:20, VL SEQ ID NO:23 (antibody, V domains shown)
VH: CDVQLVESGGGLVQPGGSRKLSCAASGFTFSDYGMAWVRQAPGKGPEWVAFISNLAYSIYYSDTVTGRFTISRENAKNTLYLEMSSLRSEDTAMYYCARGDYSGGMMDYWGQGT
VL: VLTSQPASLAVSLGQRATISYRASKSVSTSGYSYMHWNQQKPGQPPRLLIYLVSNLESGVPARFSGSGSGTDFTLNIHPVEEEDAATYYCQHIRELTRSEGGPSWK
For B1, the “FACS staining of CHO-JAML transfectant lines” value [3] was “stained both transfectant lines equally well” and the “inhibition of CAR binding to JAML” value [4] was “inhibit human JAML binding with CAR; also recorded: partially inhibited binding; also recorded: partly inhibitory”.

B2: soluble CAR: purified extracellular domain of CAR that was tagged with GST (protein)
chain: LSITTPEEMIEKAKGETAYLPCKFTLSPEDQGPLDIEWLISPADNQKVDQVIILYSGDKIYDDYYPDLKGRVHFTSNDLKSGDASINVTNLQLSDIGTYQCKVKKAPGVANKKIHLVVLVKPSGARCYVDGSEEIGSDFKIKCEPKEGSLPLQYEWQKLSDSQKMPTSWLAEMTSSVISVKNASSEYSGTYSCTVRNRVGSDQCLLRLNVVPPSNKAG
modifications: left off: a dimerising Fc or GST
B2 was tested, and the “aggregation of mixed CHO-CAR and CHO-JAML cultures (number and size of clusters)” value [5] was “blocked”.
